Assay results published in paper PMC10058949, “Effect of N-Terminal Peptide Modifications on In Vitro and In Vivo Properties of ^177Lu-Labeled Peptide Analogs Targeting CCK2R” (Pharmaceutics, 2023).

How the values were obtained:
[1] = Biodistribution 4 h p.i. in A431-CCK2R/A431-mock xenografted BALB/c nude mice; format: in vivo; conditions: female, BALB/c nude, mouse, in vivo, iv, 20 pmol, total radioactivity
Procedure: (§1) Then, after 7–11 days, when visible tumor xenografts were formed, groups of 5 mice were injected intravenously via a lateral tail vein with ~0.5 MBq of radiolabeled peptide, corresponding to 20 pmol of peptide, in a total volume of ~150 µL in PBS/0.5% BSA. Using an additional mouse per group, a blocking study was performed by co-injecting a 1000-fold molar excess of the respective peptide analog (20 nmol) together with the radiolabeled peptide. For quantification, a 1:1, 1:10 and 1:50 standard was prepared using aliquots of the injection solution mixed with PBS/0.5% BSA. Mice were euthanized by cervical dislocation 4 h after injection. Subsequently, a blood sample was collected, and different tissues were dissected. All samples, as well as the rest of the body were weighed, and the activity measured in the γ-counter together with the standard. Results were expressed as percentage of injected activity per gram of tissue (%IA/g).

[2] = test system: A431-CCK2R/A431-mock xenografted BALB/c nude mice; assay: as above; format: in vivo; conditions: mouse, in vivo
Procedure: as §1

in vivo = assay: in vivo; design: species or system mice; conditions: female, BALB/c nude, mouse, iv, 20 pmol, total radioactivity
Excerpt: (§2) Based on these preliminary studies, [^177Lu]Lu-2 was selected for further biodistribution studies evaluating the tumor uptake and tissue distribution for up to 7 days after injection. This study was approved by the Nijmegen Medical Center animal ethics committee (RUDEC) and the Dutch animal ethics committee (CCD) of the Radboud University (2020–0007-020). Female BALB/c nude mice were inoculated with A431-CCK2R cells at an age of 8–10 weeks (n = 20). When tumor xenografts were formed, mice were injected intravenously via a lateral tail vein with ~1 MBq of [^177Lu]Lu-2, corresponding to 20 pmol of peptide, in a total volume of 200 µL in PBS/0.5% BSA. For quantification, a 1% standard was used. At different time points of 1 h, 24 h, 3 days, and 7 days after injecton, animals were euthanized by CO2/O2-asphyxiation and a blood sample was immediately drawn, and tissues of interest (spleen, pancreas, stomach, intestine, kidneys, liver, heart, lung, muscle, femur, A431-CCK2R tumor, and A431-mock tumor) were dissected. All collected samples were weighed and measured in the γ-counter together with the standard. Results were expressed as percentage of injected activity per gram of tissue (%IA/g), and tumor-to-organ activity ratios were calculated for selected tissues. For dose-limiting organs, kidneys and stomach, dosimetry estimates were calculated using Olinda-EXM (version 2.2, Vanderbilt University) and standard weights for humans (male and female). For this purpose, the % IA/g determined in mice was extrapolated to humans using the following equation: % IA per organ in humans=[%IA/gin mice×mass of mice (kg)]×(mass of human organ (g)/total body mass of human (kg))

[3] = test system: A431-CCK2R xenografted BALB/c nude mice; assay: in vivo; conditions: mouse
Excerpt: as §2

[4] = Octanol/PBS distribution coefficient (logD7.4); format: physicochemical; conditions: pH 7.4
Procedure: (§3) The stability studies with the ^177Lu-labeled peptide analogs were carried out at a concentration of 0.5 nmol peptide/mL in fresh human serum (n = 2) for up to 24 h. A mixture of 0.05 nmol/mL of the radiolabeled peptides in PBS and octanol (1/1, v/v) was used to evaluate the octanol/PBS distribution coefficient (logD7.4; n = 8). To determine the protein binding in human serum by Sephadex G-50 size-exclusion chromatography (GE Healthcare Illustra, Little Chalfont, UK), a 25 µL serum sample was used for different time points after incubation. All steps were performed according to previously published protocols.

human serum proteins = assay: Protein binding in human serum by Sephadex G-50 size-exclusion chromatography; format: in vitro ADME
Procedure: as §3

[5] = uptake in A431-CCK2R xenografts
[6] = female, BALB/c nude, iv, 20 pmol, 72 h

In the case of CCCC[C@@H](C(=O)N[C@@H](CC(=O)O)C(=O)N[C@@H](Cc1cccc2ccccc12)C(N)=O)N(C)C(=O)[C@H](Cc1c[nH]c2ccccc12)NC(=O)CCNC(=O)CC(O)CNC(=O)CC(O)CNC(=O)CN1CCN(CC(=O)O)CCN(CC(=O)O)CCN(CC(=O)O)CC1 (stereo partly drawn) [[^177Lu]Lu-2, metal not drawn], the tissue to tissue ratio at 4 h [1] is reported as 17, the tissue uptake at 4 h [1, 5] is reported as 32.1 ± 4.05 %ID/g and the tissue uptake at 4 h ([1]; uptake in A431-mock xenografts) is reported as 0.22 ± 0.06 %ID/g. It also gave a tissue uptake at 4 h ([1]; uptake in blood) of 0.03 ± 0.01 %ID/g, a tissue uptake at 4 h ([1]; uptake in femur) of 0.22 ± 0.15 %ID/g and a tissue uptake at 4 h ([1]; uptake in heart) of 0.07 ± 0.02 %ID/g. It also gave a tissue uptake at 4 h ([1]; uptake in intestine) of 0.6 ± 0.12 %ID/g, a tissue uptake at 4 h ([1]; uptake in kidneys) of 1.96 ± 0.29 %ID/g and a tissue uptake at 4 h ([1]; uptake in liver) of 1.43 ± 0.18 %ID/g. For the same compound, the tissue uptake at 4 h ([1]; uptake in lung) was 0.22 ± 0.06 %ID/g, the tissue uptake at 4 h ([1]; uptake in muscle) was 0.06 ± 0.03 %ID/g and the tissue uptake at 4 h ([1]; uptake in pancreas) was 0.72 ± 0.14 %ID/g. The tissue uptake at 4 h ([1]; uptake in spleen) was 0.96 ± 0.3 %ID/g, the tissue uptake at 4 h ([1]; uptake in stomach) was 4.3 ± 0.95 %ID/g and the “improvement in tumor-to-kidney ratio versus [177Lu]Lu-DOTA-MGS5” value [2] was “more than 2 fold”. For the same compound, the tissue to tissue ratio at 1 h (in vivo; Tumor-to-blood ratio) was 38.9, the tissue to tissue ratio at 24 h (in vivo; Tumor-to-blood ratio) was 3240 and the tissue to tissue ratio at 72 h (in vivo; Tumor-to-blood ratio) was 4860. The tissue to tissue ratio at 168 h (in vivo; Tumor-to-blood ratio) was 241, the tissue to tissue ratio at 1 h (in vivo; Tumor-to-kidney ratio) was 19.8 and the tissue to tissue ratio at 24 h (in vivo; Tumor-to-kidney ratio) was 25.5. The tissue to tissue ratio at 72 h (in vivo; Tumor-to-kidney ratio) was about 17, the tissue to tissue ratio at 168 h (in vivo; Tumor-to-kidney ratio) was 4 and the tissue to tissue ratio at 1 h (in vivo; Tumor-to-stomach ratio) was 10.4. It also gave a tissue to tissue ratio at 24 h (in vivo; Tumor-to-stomach ratio) of 9.2, a tissue to tissue ratio at 72 h (in vivo; Tumor-to-stomach ratio) of about 6 and a tissue to tissue ratio at 168 h (in vivo; Tumor-to-stomach ratio) of 1.4. For the same compound, the tissue uptake at 1 h (in vivo; [5]) was 56.3 ± 9.14 %ID/g, the tissue uptake at 24 h (in vivo; [5]) was 33.6 ± 2.95 %ID/g and the tissue uptake at 72 h (in vivo; [5]) was 12.5 ± 0.96 %ID/g. It also gave a tissue uptake at 168 h (in vivo; [5]) of 1.23 ± 0.53 %ID/g, a tissue uptake at 1 h (in vivo; uptake in blood) of 1.45 ± 0.3 %ID/g and a tissue uptake at 168 h (in vivo; uptake in blood) of 0.01 %ID/g. The tissue uptake at 1 h (in vivo; uptake in femur) was 0.23 ± 0.05 %ID/g, the tissue uptake at 24 h (in vivo; uptake in femur) was 0.05 ± 0.01 %ID/g and the tissue uptake at 72 h (in vivo; uptake in femur) was 0.03 ± 0.01 %ID/g. The tissue uptake at 168 h (in vivo; uptake in femur) was 0.04 ± 0.02 %ID/g, the tissue uptake at 1 h (in vivo; uptake in heart) was 0.62 ± 0.12 %ID/g and the tissue uptake at 24 h (in vivo; uptake in heart) was 0.05 ± 0.01 %ID/g. The tissue uptake at 72 h (in vivo; uptake in heart) was 0.02 %ID/g, the tissue uptake at 168 h (in vivo; uptake in heart) was 0.02 %ID/g and the tissue uptake at 1 h (in vivo; uptake in intestine) was 1 ± 0.34 %ID/g. The tissue uptake at 24 h (in vivo; uptake in intestine) was 0.16 ± 0.02 %ID/g, the tissue uptake at 72 h (in vivo; uptake in intestine) was 0.08 %ID/g and the tissue uptake at 168 h (in vivo; uptake in intestine) was 0.03 %ID/g. The tissue uptake at 1 h (in vivo; uptake in kidneys) was 2.84 ± 0.42 %ID/g, the tissue uptake at 24 h (in vivo; uptake in kidneys) was 1.32 ± 0.23 %ID/g and the tissue uptake at 72 h (in vivo; uptake in kidneys) was 0.72 ± 0.1 %ID/g. It also gave a tissue uptake at 1 h (in vivo; uptake in liver) of 0.95 ± 0.12 %ID/g, a tissue uptake at 24 h (in vivo; uptake in liver) of 0.38 ± 0.08 %ID/g and a tissue uptake at 72 h (in vivo; uptake in liver) of 0.18 ± 0.01 %ID/g. It also gave a tissue uptake at 168 h (in vivo; uptake in liver) of 0.06 ± 0.01 %ID/g, a tissue uptake at 1 h (in vivo; uptake in lung) of 4.33 ± 0.87 %ID/g and a tissue uptake at 24 h (in vivo; uptake in lung) of 0.09 ± 0.02 %ID/g. For the same compound, the tissue uptake at 72 h (in vivo; uptake in lung) was 0.06 ± 0.01 %ID/g, the tissue uptake at 168 h (in vivo; uptake in lung) was 0.02 ± 0.01 %ID/g and the tissue uptake at 1 h (in vivo; uptake in muscle) was 0.22 ± 0.05 %ID/g. It also gave a tissue uptake at 24 h (in vivo; uptake in muscle) of 0.03 %ID/g, a tissue uptake at 72 h (in vivo; uptake in muscle) of 0.01 %ID/g and a tissue uptake at 168 h (in vivo; uptake in muscle) of 0.01 ± 0.01 %ID/g. For the same compound, the tissue uptake at 1 h (in vivo; uptake in pancreas) was 0.85 ± 0.14 %ID/g, the tissue uptake at 24 h (in vivo; uptake in pancreas) was 0.41 ± 0.08 %ID/g and the tissue uptake at 72 h (in vivo; uptake in pancreas) was 0.28 ± 0.04 %ID/g. For the same compound, the tissue uptake at 168 h (in vivo; uptake in pancreas) was 0.16 ± 0.04 %ID/g, the tissue uptake at 1 h (in vivo; uptake in spleen) was 0.54 ± 0.08 %ID/g and the tissue uptake at 24 h (in vivo; uptake in spleen) was 0.19 ± 0.03 %ID/g. The tissue uptake at 72 h (in vivo; uptake in spleen) was 0.13 ± 0.02 %ID/g, the tissue uptake at 168 h (in vivo; uptake in spleen) was 0.09 ± 0.04 %ID/g and the tissue uptake at 1 h (in vivo; uptake in stomach) was 5.43 ± 1.05 %ID/g. It also gave a tissue uptake at 24 h (in vivo; uptake in stomach) of 3.66 ± 0.38 %ID/g, a tissue uptake at 72 h (in vivo; uptake in stomach) of 2.28 ± 0.33 %ID/g and a tissue uptake at 168 h (in vivo; uptake in stomach) of 0.88 ± 0.12 %ID/g. The “uptake in A431-CCK2R xenografts” value ([3]; female, BALB/c nude, iv, 20 pmol, 1 h) was ~ 56 % IA/g, the Tumor-to-kidney ratio [3, 6] was 17.3 and the Tumor-to-stomach ratio [3, 6] was 5.5. The “uptake in A431-CCK2R xenografts” value [3, 6] was ~ 13 % IA/g, the uptake in kidneys [3, 6] was “below 1 % IA/g” and the “decrease of kidney uptake after 24 h versus 1 h p.i.” value [3] was ~ 54%. For the same compound, the “drop of uptake in A431-CCK2R xenografts after 24 h versus 1 h p.i.” value [3] was ~ 40%, the “improvement in tumor uptake in comparison with [177Lu]Lu-PP-F11N” value [3] was 4 fold and the “reduction of stomach uptake at 24 h p.i. versus 1 h p.i.” value [3] was ~ 33%. For the same compound, the logD [4] was -2.18 ± 0.38, the “change in binding to human serum proteins compared to [177Lu]Lu-DOTA-MGS5” value (human serum proteins) was 2-fold decrease and the “decrease in protein binding compared to [177Lu]Lu-DOTA-MGS5” value (human serum proteins; human, serum) was ~ 50%.
